# Experiments:
# procollagen α1(I) RNA = assay: Multiprobe RNAse protection assay of liver RNA, procollagen α1(I); type: in vivo, rat; settings: BDO rats, LU 80 mg/kg/d for 6 weeks; relative to GAPDH; p<0.05
# Description: Plasmids encoded predescribed regions of the rat procollagen α1 (I) and […] (GAPDH) genes, encompassing 230 bp (Bam HI/Rsal sites) and 102 bp (position 335-437), resp. (44, 45). The rat tissue inhibitor of metalloproteinase-1 (TIMP-1) probe (position 176-439) was prepared by RT-PCR according to the published sequence (J. P. Iredale, R. C. Benyon, M. J. P. Arthur (1996). Hepatology 24:176-184.), cloned into pZErO-1 (Invitrogen, San Diego, Calif., U.S.A.) and confirmed by restriction enzyme analysis. Preparation of riboprobes: The cDNA templates were linearized with appropriate restriction endonucleases. […] Riboprobes were purified by electrophoresis through a denaturing polyacrylamide gel and the radioactivity of eluted probes were measured by liquid scintillation counting. […] Autoradiographic signals were analyzed with the public domain NTH Image Program. The procollagen α1(I) and TIMP-1 RNA signals were normalized to the signal of GAPDH RNA and expressed as relative abundance (arbitrary units). 10 liver samples each of negative controls, of untreated rats with BDO and of rats with BDO that received LU at 80 mg/kg/d were analyzed.
# [1] = tested on: rat secondary biliary liver fibrosis (BDO); assay: Histological assessment (staging) of liver fibrosis in BDO rats; type: in vivo; settings: Sham (sham operation with LU 80 mg/kg/d 6 weeks)
# [2] = Clinical chemical serum parameters in BDO and sham-operated rats; type: in vivo, rat; settings: for ALP / ALT / AST / Bili (total bilirubin) / γGT: serum, mean ± SD
# Description: (§1) Female adult wistar rats, average weight 206±19 g, underwent the following microsurgical procedure under an operating microscope (OPMI 6-2, Zeiss, Germany) (B. Gerling, M. Becker, J. Waldschmidt, D. Schuppan (1996). J. Hepatol. 25:79-84; G. Boigk, L. Stroedter, H. Herbst H, et al. (1997). Hepatology 26:643-639.): 1. midline abdominal incision following anaesthesia with 100 mg/kg ketamine-hydroochloride (Ketanest®, Parke-Davis, Germany) and 10 mg/kg 5,6-dihydro-2-(2,6-xylidino)-4H-1,3-thiazine-hydrochloride (Rompun®, Bayer, Germany); 2. dissection of the common bile duct, insertion of a teflon catheter (Abbocath -T 26 G, venisystems, U.S.A.) and placement of a distal complete and a proximal incomplete ligature with 5-0 silk (Permahand , Ethicon, Germany); 3. retrograde injection of sodium-amidotrizoate (Ethibloc®, Ethicon Germany) at a dose of 0.02 ml/100 g body weight; 4. removal of the catheter, closure of the proximal ligature, scission of the bile duct between the ligatures and wound closure. After bile duct occlusion (BDO), animals received normal chow (Altromin®, Lage, Germany) and were allowed free access to water. […] The following therapeutic groups were formed: 1. BDO and LU at 80 mg/kg/d for 6 weeks (BDO 80/1-6:n=20); 2. BDO and LU at 80 mg/kg/d from week 4-6 of BDO (BDO 80/4-6:n=20); 3. […]
# Standard laboratory parameters were measured by our in-hospital clinical chemical department, using an automated analyser (BM/Hitachi 747). The aminoterminal propeptide of procollagen type III (PIIINP) was determined using a sequential saturation radioimmunoassay based on PIINP from rat, a monospecific rabbit antiserum to rat PIIINP and a goat antiserum to rabbit IgG, using a previously described procedure (B. Gerling, M. Becker, J. Waldschmidt, D. Schuppan (1996). J. Hepatol. 25:79-84; G. Boigk, L. Stroedter, H. Herbst H, et al. (1997). Hepatology 26:643-649; d. Schuppan, J. M. Dumont, K. Y. Kim, et al. (1986). J. Hepatol. 3:27-37.). Inter- and intra-assay coefficients of variation were 12% and 5% for a normal and 4% and 3% for a pathological serum sample, resp.
# [3] = Body and organ weights of rats with bile duct occlusion (BDO) or sham operation; type: in vivo
# Description: as §1
# Early mortality (within 1 h to 3 days) in rats with BDO was due to local infection and amounted to 9%. […] After 6 weeks rats were sacrificed under ketanest(rompun-anaesthesia by puncture of the right ventricle and exsanguination. Heart, liver, spleen and kidneys were weighed, and 1-2 g pieces of the left and the right liver lobes fixed in 4% formalin for histology and hydroxyproline (HYP) determinations.
# [4] = BDO/LU 80/1-6 (n = 10): BDO, LU 80 mg/kg/d week 1-6
# [5] = BDO/LU 80/4-6 (n = 14): BDO, LU 80 mg/kg/d week 4-6
# [6] = Sham/LU: sham operation, LU 80 mg/kg/d for 6 weeks, n = 10
# [7] = BDO/LU 80/1-6: BDO, LU 80 mg/kg/d week 1-6, n = 10
# [8] = BDO/LU 80/4-6: BDO, LU 80 mg/kg/d week 4-6, n = 14
smiles,measurement,setting,value
COc1cc(OC)nc(O[C@H](C(=O)O)C(OC)(c2ccccc2)c2ccccc2)n1 [LU],Reduction of procollagen α1(I) mRNA level,procollagen α1(I) RNA,35%
same,Histological assessment of fibrosis: animals at Stage 0,[1],10
same,"Clinical chemical serum parameters (AST, ALT, alkaline phosphatase, gamma glutamyltranspeptidase, total bilirubin, creatinine)",[2]; all groups with BDO,did not differ between all groups with BDO
same,ALP,[2]; headed BDO/LU 80/1-6 (n = 20),256.1 ± 49.6 U/L
same,ALT,[2]; headed BDO/LU 80/1-6 (n = 20),22 ± 8.4 U/L
same,AST,[2]; headed BDO/LU 80/1-6 (n = 20),198 ± 56.7 U/L
same,Bili (total bilirubin),[2]; headed BDO/LU 80/1-6 (n = 20),189.5 ± 43.2 µmol/L
same,γGT,[2]; headed BDO/LU 80/1-6 (n = 20),15 ± 6.4 U/L
same,ALP,[2]; [4],230.7 ± 55.7 U/L
same,ALT,[2]; [4],23.6 ± 10.8 U/L
same,AST,[2]; [4],160.9 ± 78.5 U/L
same,Bili (total bilirubin),[2]; [4],171.3 ± 49.5 µmol/L
same,γGT,[2]; [4],32.7 ± 24.4 U/L
same,ALP,[2]; [5],253.1 ± 75.8 U/L
same,ALT,[2]; [5],40.2 ± 52 U/L
same,AST,[2]; [5],229 ± 78.5 U/L
same,Bili (total bilirubin),[2]; [5],209.9 ± 48.9 µmol/L
same,γGT,[2]; [5],28.1 ± 26.4 U/L
same,ALP,[2]; [6],85.3 ± 17.9 U/L
same,ALT,[2]; [6],21.7 ± 3.3 U/L
same,AST,[2]; [6],36.4 ± 7.9 U/L
same,Bili (total bilirubin),[2]; [6],1.6 ± 0.5 µmol/L
same,γGT,[2]; [6],0.3 ± 0.5 U/L
same,B.W.,[3]; [7],293.0 ± 32.89 g
same,Liver W.,[3]; [7],24.73 ± 4.47 g
same,Spleen W.,[3]; [7],1.78 ± 0.47 g
same,B.W.,[3]; [8],259.1 ± 30.2 g
same,Liver W.,[3]; [8],23.01 ± 5.33 g
same,Spleen W.,[3]; [8],1.62 ± 0.46 g
same,B.W.,[3]; [6],305.8 ± 23.40 g
same,Liver W.,[3]; [6],11.98 ± 1.95 g
same,Spleen W.,[3]; [6],0.73 ± 0.08 g
same,Liver and spleen weights,[3]; rats with BDO,reduced liver and spleen weights dose-dependently
same,"Weights of kidneys, heart and lungs","[3]; rats with BDO, high and low dose groups (not shown)",neither nor the low dose groups demonstrated significant differences
